Source: patent US9951066B2, “Compositions, uses and methods for making them” (Pimera, Inc., priority 2014, dated 2018)

The compounds below were run on A375 cell line (assay: Alamar Blue cell viability assay, A375). Conditions: Homo sapiens, A-375; Table 4; cell proliferation inhibition, Alamar Blue, 96 h incubation; read-out: Pharmaceutical activity in A375 cell line IC50.
Format: cell-based
Experimental: Inhibitory activity on cell proliferation of representative compounds of the invention was determined using an Alamar Blue cell viability assay as described hereafter.
3000 cancer cells in 100 uL of cell culture media were plated in each well of a 96-well clear bottom, black wall cell culture-pretreated plate.
The next day compounds are serially diluted (3-fold in cell culture media) across a 96-well polypropylene mother plate from row A to row F, to yield 6 concentrations (10 uM, 3.3 uM, 1.1 uM, 370 nM, 124 nM and 41 nM) for each test compound. Rows G and H contain only DMSO.
Once titrations are made, the media in plates with cells were disposed and 100 μL of drug dilutions are transferred to plates with cells. After a ninety six-hour incubation at 37° C., 10 uL of resazurin solution from Alamar Blue Cell Viability kit (Invitrogen, Carlsbad, Calif.) was added to the media and cells were incubated at 37° C. for three more hours. At the end of this incubation the production of resofurin was measured using Spectrmax M2 microplate reader (Molecular Devices, Sunnyvale, Calif.)

`COCCCNC(=O)c1cc2cnccc2n2c1nc1ccccc12` [Compound 13E, 3,7,11b-Triaza-benzo[c]fluorene-6-carboxylic acid (3-methoxy-propyl)-amide] and `CC(C)NC(=O)c1cc2cnccc2n2c1nc1ccccc12` [Compound 13C, 3,7,11b-Triaza-benzo[c]fluorene-6-carboxylic acid isopropylamide] fall in the same range of IC50: 5 to 10 µM for the first, 5 to 10 µM for the second.

`CN1CCN(c2ccc3cc(C(=O)NC4CC4)c4nc5ccccc5n4c3n2)CC1` [Compound 5E, 2-(4-Methyl-piperazin-1-yl)-1,7,11b-triaza-benzo[c]fluorene-6-carboxylic acid cyclopropylamide] and `CNC(=O)c1cc2ccc(N3CCN(C)CC3)nc2n2c1nc1ccccc12` [Compound 5C] fall in the same range of IC50: 1 to 5 µM for the first, 1 to 5 µM for the second.

`O=C(O)c1cc2cc(F)cnc2n2c1nc1ccccc12` [Compound 7B, 3-Fluoro-1,7,11b-triaza-benzo[c]fluorene-6-carboxylic acid] and `O=C(c1cc2cc(F)cnc2n2c1nc1ccccc12)N1CCCNCC1` [Compound 7D, [1,4]Diazepan-1-yl-(3-fluoro-1,7,11b-triaza-benzo[c]fluoren-6-yl)-methanone] cannot be ordered by IC50: greater than 10 µM for the first, greater than 10 µM for the second.

`CN(C)C1CCN(c2ccc3cc(C#N)c4nc5ccccc5n4c3n2)C1` (stereo not shown) [Compound 3F, 2-(3-Dimethylamino-pyrrolidin-1-yl)-1,7,11b-triaza-benzo[c]fluorene-6-carbonitrile] and `N#Cc1cc2ccc(N3CCCNCC3)nc2n2c1nc1ccccc12` [Compound 3D, 2-[1,4]Diazepan-1-yl-1,7,11b-triaza-benzo[c]fluorene-6-carbonitrile] cannot be ordered by IC50: less than 1 µM for the first, less than 1 µM for the second.

`N#Cc1cc2ccc(NCCn3ccnc3)nc2n2c1nc1ccccc12` [Compound 3G, 2-(2-Imidazol-1-yl-ethylamino)-1,7,11b-triaza-benzo[c]fluorene-6-carbonitrile] and `N#Cc1cc2ccc(NCCN3CCOCC3)nc2n2c1nc1ccccc12` [Compound 3E, 2-(2-Morpholin-4-yl-ethylamino)-1,7,11b-triaza-benzo[c]fluorene-6-carbonitrile] fall in the same range of IC50: 1 to 5 µM for the first, 1 to 5 µM for the second.

First: O=C(NCCN1CCCC1)c1cc2cnccc2n2c1nc1ccccc12 [Compound 13G]
Second: CNC(=O)c1cc2ccc(NCCN3CCOCC3)nc2n2c1nc1ccccc12 [Compound 11D, 2-(2-Morpholin-4-yl-ethylamino)-1,7,11b-triaza-benzo[c]fluorene-6-carboxylic acid methylamide]
The IC50 of the first is lower: less than 1 µM for the first, 1 to 5 µM for the second. The first is the more potent here.

First: CN1CCCN(c2ccc3cc(C(=O)NC#N)c4nc5ccccc5n4c3n2)CC1 [Compound 4C]
Second: [2H]C([2H])([2H])NC(=O)c1cc2ccc(N3CCCN(C)CC3)nc2n2c1nc1ccccc12 [Compound 4E, 2-(4-Methyl-[1,4]diazepan-1-yl)-1,7,11b-triaza-benzo[c]fluorene-6-carboxylic acid methyl-d3-amide]
The IC50 of the first is lower: less than 1 µM for the first, 1 to 5 µM for the second. The first is the more potent here.

First: CN1CCCN(C(=O)c2cc3cc(F)cnc3n3c2nc2ccccc23)CC1 [Compound 7C, (3-Fluoro-1,7,11b-triaza-benzo[c]fluoren-6-yl)-(4-methyl-[1,4]diazepan-1-yl)-methanone]
Second: CN1CCN(c2ccc3cc(C(=O)NN)c4nc5ccccc5n4c3n2)CC1 [Compound 5B]
The IC50 of the first is higher: greater than 10 µM for the first, 5 to 10 µM for the second. The second is the more potent here.

Same assay, conditions: Homo sapiens, A-375; cell proliferation inhibition, Alamar Blue, 96 h incubation; read-out: Pharmaceutical activity IC50 A375

`CC(NC(=O)c1cc2ccc(N3CCCN(C)CC3)nc2n2c1nc1ccccc12)C1CC1` (stereo not shown) [Compound 2B, 2-(4-Methyl-[1,4]diazepan-1-yl)-1,7,11b-triazabenzo[c]fluorene-6-carboxylic acid (1-cyclopropylethyl)-amide] and `CC(C)NC(=O)c1cc2ccc(N3CCCN(C)CC3)nc2n2c1nc1ccccc12` [Compound 2A, 2-(4-methyl-[1,4]diazepan-1-yl)-1,7,11b-triazabenzo[c]fluorene-6-carboxylic acid isopropylamide] fall in the same range of IC50: 5 to 10 µM for the first, 5 to 10 µM for the second.

`CN1CCCN(c2ccc3cc(C(=O)NC4CCOCC4)c4nc5ccccc5n4c3n2)CC1` [Compound 2D, 2-(4-methyl-[1,4]diazepan-1-yl)-1,7,11b-triazabenzo[c]fluorene-6-carboxylic acid (tetrahydropyran-4-yl)-amide] showed an IC50 of 1 to 5 µM.
